Common to all, as to assay: greenhouse pre-emergence herbicidal test
Common to all, as to format: in vivo

The test system of one assay is Echinochloa crus-galli. The note with it: scale 0 to 100. An excerpt: (§1) The culture containers used were plastic flowerpots containing loamy sand with approximately 3.0% of humus as the substrate. The seeds of the test plants were sown separately for each species.
(§2) For the pre-emergence treatment, the active ingredients, which had been suspended or emulsified in water, were applied directly after sowing by means of finely distributing nozzles. The containers were irrigated gently to promote germination and growth and subsequently covered with transparent plastic hoods until the plants had rooted. This cover caused uniform germination of the test plants, unless this had been impaired by the active ingredients. For the post-emergence treatment, the test plants were first grown to a height of 3 to 15 cm, depending on the plant habit, and only then treated with the active ingredients which had been suspended or emulsified in water. For this purpose, the test plants were either sown directly and grown in the same containers, or they were first grown separately as seedlings and transplanted into the test containers a few days prior to treatment.
(§3) Depending on the species, the plants were kept at 10-25° C. or 20-35° C., respectively.
(§4) The test period extended over 2 to 4 weeks. During this time, the plants were tended, and their response to the individual treatments was evaluated.
(§5) Evaluation was carried out using a scale from 0 to 100. 100 means no emergence of the plants, or complete destruction of at least the aerial moieties, and 0 means no damage, or normal course of growth. A moderate herbicidal activity is given at values of at least 60, a good herbicidal activity is given at values of at least 70, and a very good herbicidal activity is given at values of at least 85.
(§6) The plants used in the greenhouse experiments were of the following species: […]

A further assay has as its system Alopecurus myosuroides. To be noted: scale 0 to 100.
Description: as §1, §2, §3, §4, §5, §6

The subject of a further assay is Setaria faberi. The note with it: scale 0 to 100.
Description: as §1, §2, §3, §4, §5, §6

The next assay deals with Abutilon theophrasti. The note with it: scale 0 to 100.
Description: as §1, §2, §3, §4, §5, §6

The next assay relates to Amaranthus retroflexus. To be noted: scale 0 to 100.
Description: as §1, §2, §3, §4, §5, §6

The subject of the next assay is Lolium multiflorum. The note with it: pre-emergence, 62,5 g/ha, scale 0 to 100.
Description: as §1, §2, §3, §4, §5, §6

Turning to `COc1c(Cl)cc(F)c(F)c1Nc1nc(N)nc(C(F)CC(C)C)n1` (racemic) [Example 12], the herbicidal activity in the assay with Echinochloa crus-galli (pre-emergence, 250 g/ha) is given as 100%; with Alopecurus myosuroides (pre-emergence, 250 g/ha), 100%; with Setaria faberi (pre-emergence, 250 g/ha), 100%.

`CC(C)(F)c1nc(N)nc(Nc2c(F)c(F)cc(Cl)c2OCC#CC2CC2)n1` [Example 30]: the herbicidal activity was found to be 100% in the assay on Abutilon theophrasti (pre-emergence, 31 g/ha); 100% with Alopecurus myosuroides (pre-emergence, 31 g/ha); 100% in the assay with Setaria faberi (pre-emergence, 31 g/ha).

`COc1c(Cl)cc(F)c(F)c1Nc1nc(N)nc(C(C)(C)OC)n1` [Example 36]: the herbicidal activity in the assay with Amaranthus retroflexus (pre-emergence, 62,5 g/ha) is reported as 100%; in the assay on Echinochloa crus-galli (pre-emergence, 62,5 g/ha) it was 100%; in the assay with Abutilon theophrasti (pre-emergence, 62,5 g/ha) it was 100%.

As to `CC(C)(F)c1nc(N)nc(Nc2c(F)c(F)cc(F)c2OC/C=C/Cl)n1` [Example 126], the herbicidal activity with Amaranthus retroflexus (pre-emergence, 62,5 g/ha) is recorded as 100%; in the assay on Lolium multiflorum it was 100%; in the assay with Setaria faberi (pre-emergence, 62,5 g/ha) it was 100%.

`CC=C(Cl)COc1c(Cl)cc(F)c(F)c1Nc1nc(N)nc(C(C)(C)F)n1` [Example 53]: the herbicidal activity is given as 98% in the assay on Echinochloa crus-galli (pre-emergence, 62,5 g/ha); 90% in the assay with Alopecurus myosuroides (pre-emergence, 62,5 g/ha); 100% with Setaria faberi (pre-emergence, 62,5 g/ha).

For `COc1c(C)c(F)c(F)c(F)c1Nc1nc(N)nc(C(C)(C)F)n1` [Example 169], the herbicidal activity with Amaranthus retroflexus (pre-emergence, 62,5 g/ha) stood at 100%; in the assay with Echinochloa crus-galli (pre-emergence, 62,5 g/ha) it was 100%; in the assay on Alopecurus myosuroides (pre-emergence, 62,5 g/ha), 100%.

Turning to `CCC#CCOc1c(Br)cc(F)c(F)c1Nc1nc(N)nc(C(C)(C)F)n1` [Example 20], the herbicidal activity in the assay on Amaranthus retroflexus (pre-emergence, 62,5 g/ha) is recorded as 100%; with Echinochloa crus-galli (pre-emergence, 62,5 g/ha), 100%; with Abutilon theophrasti (pre-emergence, 62,5 g/ha), 100%.

For the compound `C#CC(C)Oc1c(Br)cc(F)c(F)c1Nc1nc(N)nc(C2(F)CCCC2)n1` (stereo not drawn) [Example 97], the herbicidal activity turned out to be 85% with Amaranthus retroflexus (pre-emergence, 62 g/ha); 70% in the assay on Alopecurus myosuroides (pre-emergence, 62 g/ha); 85% in the assay on Setaria faberi (pre-emergence, 62 g/ha).

Consider `COc1c(Br)c(F)c(F)c(F)c1Nc1nc(N)nc(C(C)(C)F)n1` [Example 164], for which the herbicidal activity in the assay on Amaranthus retroflexus (pre-emergence, 62,5 g/ha) was 100%; with Alopecurus myosuroides (pre-emergence, 62,5 g/ha), 100%; with Setaria faberi (pre-emergence, 62,5 g/ha), 100%.

Regarding `COc1c(Cl)cc(F)c(F)c1Nc1nc(N)nc(C(C)(F)F)n1` [Example 49, N4-(5-chloro-2,3-difluoro-6-methoxy-phenyl)-6-(1,1-difluoroethyl)-1,3,5-triazine-2,4-diamine], the herbicidal activity in the assay on Amaranthus retroflexus (pre-emergence, 62,5 g/ha) is reported as 100%; in the assay on Echinochloa crus-galli (pre-emergence, 62,5 g/ha), 100%; with Abutilon theophrasti (pre-emergence, 62,5 g/ha) it was 100%.

On to `COc1c(Cl)cc(F)c(F)c1Nc1nc(N)nc(C2(F)CC2)n1` [Example 35], for which the herbicidal activity with Amaranthus retroflexus (pre-emergence, 62,5 g/ha) turned out to be 100%; in the assay with Echinochloa crus-galli (pre-emergence, 62,5 g/ha), 100%; in the assay with Abutilon theophrasti (pre-emergence, 62,5 g/ha), 100%.

In the case of `C#CCOc1c(Br)cc(F)c(F)c1Nc1nc(N)nc(C(C)(C)F)n1` [Example 17], the herbicidal activity is 100% in the assay with Amaranthus retroflexus (pre-emergence, 250 g/ha); 100% with Echinochloa crus-galli (pre-emergence, 250 g/ha); 100% in the assay with Abutilon theophrasti (pre-emergence, 250 g/ha).

As for `CC(C)(F)c1nc(N)nc(Nc2c(F)c(F)cc(Br)c2OC(F)F)n1` [Example 31], the herbicidal activity in the assay with Amaranthus retroflexus (pre-emergence, 250 g/ha) worked out at 100%; in the assay on Echinochloa crus-galli (pre-emergence, 250 g/ha), 100%; in the assay with Abutilon theophrasti (pre-emergence, 250 g/ha) it was 100%.

Regarding `CC#CC(C)Oc1c(Cl)cc(F)c(F)c1Nc1nc(N)nc(C2(F)CCCC2)n1` (stereo not drawn) [Example 100], the herbicidal activity with Echinochloa crus-galli (pre-emergence, 62 g/ha) came to 100%; in the assay on Alopecurus myosuroides (pre-emergence, 62 g/ha), 98%; in the assay with Setaria faberi (pre-emergence, 62 g/ha), 100%.

With `COc1c(Br)cc(F)c(F)c1Nc1nc(N)nc(C(C)(F)CBr)n1` (stereo not drawn) [Example 123], the herbicidal activity with Amaranthus retroflexus (pre-emergence, 62,5 g/ha) amounted to 100%; in the assay on Alopecurus myosuroides (pre-emergence, 62,5 g/ha), 100%; in the assay with Setaria faberi (pre-emergence, 62,5 g/ha), 100%.

Regarding `Nc1nc(Nc2c(F)ccc(Br)c2OC2CC2)nc(C2(F)CCCC2)n1` [Example 14], the herbicidal activity in the assay with Echinochloa crus-galli (pre-emergence, 125 g/ha) was 98%; in the assay with Alopecurus myosuroides (pre-emergence, 125 g/ha), 98%; in the assay on Setaria faberi (pre-emergence, 125 g/ha) it was 100%.

For the compound `C#CCOc1c(Cl)cc(F)c(F)c1Nc1nc(N)nc(C2(F)CCCC2)n1` [Example 129], the herbicidal activity with Amaranthus retroflexus (pre-emergence, 62,5 g/ha) is recorded as 95%; in the assay on Lolium multiflorum, 90%; in the assay with Setaria faberi (pre-emergence, 62,5 g/ha), 100%.

Take `CCC(C)(F)c1nc(N)nc(Nc2c(F)c(F)cc(Cl)c2OC)n1` (stereo not drawn) [Example 116]: the herbicidal activity amounted to 100% with Amaranthus retroflexus (pre-emergence, 62,5 g/ha); 100% in the assay with Abutilon theophrasti (pre-emergence, 62,5 g/ha); 100% with Alopecurus myosuroides (pre-emergence, 62,5 g/ha).
